Measured values: US20140271734A1, “BILE ACID RECYCLING INHIBITORS FOR TREATMENT OF BARRETT'S ESOPHAGUS AND GASTROESOPHAGEAL REFLUX DISEASE” (LUMENA PHARMACEUTICALS, INC., priority 2013, published 2014)

Legend:
[1] = Single-dose [14C]LUM001 oral solution: radioactivity in plasma, blood, urine, feces; assay type: in vivo, human
Description: This was an open-label, one-period, single-dose study of a [^14C]LUM001 oral solution. Eight healthy male subjects received an oral solution of 5 mg [^14C]LUM001 (containing approximately […] per dose). Blood samples were collected at predose and for 72 hours postdose, urine samples were collected predose and for 168 hours postdose and feces were collected predose and for 216 hours postdose. Plasma, whole blood, urine and fecal samples were analyzed for total radioactivity, and selected fecal samples were analyzed for LUM001 and relevant metabolite concentrations. In addition, metabolic profiles in selected fecal samples were obtained using high performance liquid radio chromatography (HPLRC).

[2] = test system: 3-Hydroxy-3-Methylglutaryl Coenzyme A (HMG-CoA) Reductase; assay: HMG-CoA reductase activity in liver microsomes of treated dogs; assay type: in vivo, beagle dogs; conditions: 14 Days; for HMG-CoA Reductase: n=8
Description: Healthy female and male beagle dogs in the age range of 8 to 10 months were used. The animals were acclimated for at least four weeks before dose administration. […] Animals in the control group (group 1) were given the same number of empty capsules as the animals of group 5 to treat all dose groups the same.
At the end of the study, animals were anesthetized, their livers removed and flash frozen and stored at −80 C. Homogenates of three gram liver tissue samples were prepared in 25 ml homogenization buffer [0.1 M potassium phosphate buffer, pH 7.2, containing 0.1 M sucrose, 50 mM KCl, 50 mM NaF, 5 mM ethylene glycol-bis((3-aminoethyl ether)-N,N,N′,N′-tetraacetic acid (EGTA), 1 mM EDTA, 3 mM dithiothreitol (DTT), and 1 mM phenylmethylsulfonyl fluoride (PMSF)]. A microsomal fraction was prepared by centrifugation at 10,000×g for ten minutes. The supernatant was subjected to centrifugation at 105,000×g for two hours. The microsomal fraction was resuspended in a 0.1 M Na tetrapyrophosphate buffer (pH 10), with 50 mM NaF, and 1 mM EDTA, and subjected to centrifugation for one hour at 105,000×g. The microsomal fraction was resuspended in the homogenization buffer, and assayed for protein content by Coomassie Protein Plus Assay reagent.
Microsomes (200 μg) were preincubated for 15 minutes at 37° C. in a total volume of […] buffer containing 0.1 M potassium phosphate (pH 7.4), 10 mM imidazole, 5 mM DTT, 10 mM EDTA, 3 mM NADP, 12 mM glucose-6-phosphate and 1 unit glucose-6-phosphate dehydrogenase (catalog number G4134, Sigma, St. Louis). The HMG-CoA reductase assay was initiated by the addition of 9 nmoles (0.5 μCi) DL-[3^14C] HMG-CoA (final assay volume was […]. The mixture was incubated for 60 minutes at 37° C. after which the assay was stopped with 25 μl of 6 N HCl. [^3H]Mevalonic acid (0.1 μCi), used as an internal standard to correct for incomplete recovery, was added to the reaction mixture along with 3 mg of unlabeled mevalonic acid lactone. The mixture was then incubated for an additional 30 minutes at 37° C. The [^14C]mevalonate that was formed and converted into mevalonic acid lactone during both incubations was isolated by thin layer chromatography. Each lane was scraped into 3 ml of InstaGel XF (Packard, Meriden, Conn.) and read on a Beckman Scintillator Counter. Reagents unless noted otherwise were obtained from Sigma, St. Louis, Mo. Isotopes were obtained from NEN Life Science Products, Boston, Mass.

[3] = test system: serum total bile acid (SBA); conditions: previous experiments; cited from earlier work
plasma lipase = assay: Plasma lipase in ZDF rats, week 3; assay type: in vivo; conditions: twice daily oral gavage
Hemoglobin A1c (HbA1c) = assay: Baseline-corrected percent HbA1c in ZDF rats; assay type: in vivo; conditions: twice daily oral gavage
GLP-2 = GLP-2 in plasma of non-fasted ZDF rats, 2 weeks treatment; assay type: in vivo
[4] = 5 mg [14C]LUM001 oral solution, eight healthy male subjects
[5] = 5 mg [14C]LUM001 oral solution, analyte in feces

For `CCCCC1(CCCC)CS(=O)(=O)c2ccc(N(C)C)cc2[C@@H](c2ccc(OCc3ccc(C[N+]45CCN(CC4)CC5)cc3)cc2)[C@H]1O` [LUM001], the “Fecal radioactivity associated with unchanged free LUM001” value ([1]; 5 mg [14C]LUM001 oral solution) was 94%, the “Radioactive dose detected in plasma, whole blood or urine” value [1, 4] was “Less than 1%” and the “Total radioactive dose detected in feces” value [1, 4] was 72%. The “Mean Percent of Dose in Feces” value [1, 5] was 65.0%, the “Percent of Fecal Radioactivity” value [1, 5] was 94.4% and the “Cumulative % of Total Dose” value ([1]; Feces incl. Toilet Paper (cumulative recovery in toilet paper from first five fecal samples)) was 72.466%. For the same compound, the “Cumulative % of Total Dose” value ([1]; Feces, 0-24 hr) was 30.376%, the “Cumulative % of Total Dose” value ([1]; Feces, 24-48 hr) was 49.878% and the “Cumulative % of Total Dose” value ([1]; Feces, 48-72 hr) was 67.630%. The “Cumulative % of Total Dose” value ([1]; Feces, 72-96 hr) was 69.653%, the “Cumulative % of Total Dose” value ([1]; Feces, 96-120 hr) was 71.606% and the “Cumulative % of Total Dose” value ([1]; Feces, 120-144 hr) was 71.771%. The “Cumulative % of Total Dose” value ([1]; Feces, 144-168 hr) was 71.815%, the “Cumulative % of Total Dose” value ([1]; Feces, 168-192 hr) was 71.885% and the “Cumulative % of Total Dose” value ([1]; Feces, 192-216 hr) was 71.885%. For the same compound, the “Radioactive Concentration” value ([1]; Plasma, 0.5 hr) was “BLQ”, the “Radioactive Concentration” value ([1]; Plasma, 1 hr) was “BLQ” and the “Radioactive Concentration” value ([1]; Plasma, 1.5 hr) was “BLQ”. The “Radioactive Concentration” value ([1]; Plasma, 2 hr) was “BLQ”, the “Radioactive Concentration” value ([1]; Plasma, 2.5 hr) was “BLQ” and the “Radioactive Concentration” value ([1]; Plasma, 3 hr) was “BLQ”. The “Radioactive Concentration” value ([1]; Plasma, 4 hr) was “BLQ”, the “Radioactive Concentration” value ([1]; Plasma, 6 hr) was “BLQ” and the “Radioactive Concentration” value ([1]; Plasma, 8 hr) was “BLQ”. The “Radioactive Concentration” value ([1]; Plasma, 12 hr) was “BLQ”, the “Radioactive Concentration” value ([1]; Plasma, 16 hr) was 0.000 ng equivalents/mL and the “Radioactive Concentration” value ([1]; Plasma, 24 hr) was “BLQ”. For the same compound, the “Radioactive Concentration” value ([1]; Plasma, 36 hr) was 0.000 ng equivalents/mL, the “Radioactive Concentration” value ([1]; Plasma, 48 hr) was “BLQ” and the “Radioactive Concentration” value ([1]; Plasma, 60 hr) was “BLQ”. For the same compound, the “Radioactive Concentration” value ([1]; Plasma, 72 hr) was “BLQ”, the “Cumulative % of Total Dose” value ([1]; Total (Urine and Feces)) was 72.532% and the “Cumulative % of Total Dose” value ([1]; Urine, 0-2 hr) was 0.005%. For the same compound, the “Cumulative % of Total Dose” value ([1]; Urine, 2-4 hr) was 0.012%, the “Cumulative % of Total Dose” value ([1]; Urine, 4-8 hr) was 0.028% and the “Cumulative % of Total Dose” value ([1]; Urine, 8-12 hr) was 0.041%. The “Cumulative % of Total Dose” value ([1]; Urine, 12-24 hr) was 0.058%, the “Cumulative % of Total Dose” value ([1]; Urine, 24-48 hr) was 0.057% and the “Cumulative % of Total Dose” value ([1]; Urine, 48-72 hr) was 0.062%. The “Cumulative % of Total Dose” value ([1]; Urine, 72-96 hr) was 0.063%, the “Cumulative % of Total Dose” value ([1]; Urine, 96-120 hr) was 0.063% and the “Cumulative % of Total Dose” value ([1]; Urine, 120-144 hr) was 0.064%. The “Cumulative % of Total Dose” value ([1]; Urine, 144-168 hr) was 0.066%, the “Radioactive Concentration” value ([1]; Whole Blood, 1 hr) was 0.000 ng equivalents/g and the “Radioactive Concentration” value ([1]; Whole Blood, 4 hr) was 0.000 ng equivalents/g. The “Radioactive Concentration” value ([1]; Whole Blood, −0.5 hr) was 0.000 ng equivalents/g, the “HMG-CoA Reductase, % change from vehicle group” value (“HMG-CoA Reductase, % change” below) ([2]; 1 mg/kg/day) was “(+128) %” and the “HMG-CoA Reductase” value ([2]; 1 mg/kg/day) was 164 ± 20 pmol/mg/min. The “HMG-CoA Reductase, % change” value ([2]; 4 mg/kg/day) was “(+242) %”, the “HMG-CoA Reductase” value ([2]; 4 mg/kg/day) was 246 ± 30 pmol/mg/min and the “HMG-CoA Reductase, % change” value ([2]; 12 mg/kg/day) was “(+449) %”. The “HMG-CoA Reductase” value ([2]; 12 mg/kg/day) was 395 ± 46 pmol/mg/min, the “HMG-CoA Reductase, % change” value ([2]; 30 mg/kg/day) was “(+656) %” and the “HMG-CoA Reductase” value ([2]; 30 mg/kg/day) was 544 ± 33 pmol/mg/min. The “Time LUM001 remains active” value [3] was “more than 4.5 hours”.
For `CCCC[C@]1(CC)CS(=O)(=O)c2ccc(N(C)C)cc2[C@@H](c2cccc(NC(=O)N[C@@H]3O[C@H](COS(=O)(=O)[O-])[C@@H](O)[C@H](OCc4ccccc4)[C@H]3O)c2)[C@H]1O.CCO.O.[K+]` [LUM002, potassium((2R,3R,4S,5R,6R)-4-benzyloxy-6-{3-[3-((3S,4R,5R)-3-butyl-7-dimethylamino-3-ethyl-4-hydroxy-1,1-dioxo-2,3,4,5-tetrahydro-1H-benzo[b]thiepin-5-yl)-phenyl]-ureido}-3,5-dihydroxy-tetrahydro-pyran-2-ylmethyl)sulphate ethanolate, hydrate], the Plasma lipase (plasma lipase) was “statistically significant reductions in plasma lipase at higher doses”, the “Baseline-corrected percent HbA1c” value (Hemoglobin A1c (HbA1c)) was “significant dose-dependent reductions” and the GLP-2 in plasma (GLP-2) was “significant elevations in GLP2 at higher doses”.
